Test results published in publication PMC4980153 (Biochemical pharmacology, 2016).
“And” between values parts separate entries of the source, which are not always exact repeats. Equal values may be shown once. Where a name gives a salt, the structure may show the parent alone. Read-outs that look alike come from different tables or passages of the source.

Tests used:
[1] = target: (e1-BB2) BB3* loss-of-affinity chimera (Homo sapiens, UniProt P32247, E111D/G112R/H107K/H294R/T106S); experiment: 125I-peptide #1 competition binding, CHOP cells; design: species or system mouse; settings: EC1 of BB3* replaced by EC1 of BB2, vs BB3*
Sequence of (e1-BB2) BB3* loss-of-affinity chimera (P32247 whole entry T106S/H107K/E111D/G112R/H294R): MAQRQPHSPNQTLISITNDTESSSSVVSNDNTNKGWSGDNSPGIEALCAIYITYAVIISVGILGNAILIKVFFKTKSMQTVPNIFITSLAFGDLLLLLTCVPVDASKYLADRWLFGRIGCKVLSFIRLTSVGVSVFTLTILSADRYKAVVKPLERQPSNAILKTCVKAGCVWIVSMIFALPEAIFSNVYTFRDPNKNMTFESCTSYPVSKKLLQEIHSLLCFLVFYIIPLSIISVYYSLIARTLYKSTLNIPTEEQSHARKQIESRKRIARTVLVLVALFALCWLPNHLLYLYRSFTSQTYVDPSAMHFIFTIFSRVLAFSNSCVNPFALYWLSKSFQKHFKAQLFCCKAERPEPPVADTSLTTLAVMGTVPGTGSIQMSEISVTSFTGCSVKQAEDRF

[2] = target: (e2-BB2) BB3* loss-of-affinity chimera (Homo sapiens, UniProt P32247, D193V/E201I/E215K/H294R/K196T/K210N/K211E/L213H/L219M/L220A/M198Q/N187D/N195D/P194K/Q214P/R192H/S205P/T190P/T204A/V188L/V208H/Y189H); experiment: 125I-peptide #1 competition binding, CHOP cells; design: species or system mouse; settings: EC2 of BB3* replaced by EC2 of BB2, vs BB3*
Sequence of (e2-BB2) BB3* loss-of-affinity chimera (P32247 1-399 with the stated changes): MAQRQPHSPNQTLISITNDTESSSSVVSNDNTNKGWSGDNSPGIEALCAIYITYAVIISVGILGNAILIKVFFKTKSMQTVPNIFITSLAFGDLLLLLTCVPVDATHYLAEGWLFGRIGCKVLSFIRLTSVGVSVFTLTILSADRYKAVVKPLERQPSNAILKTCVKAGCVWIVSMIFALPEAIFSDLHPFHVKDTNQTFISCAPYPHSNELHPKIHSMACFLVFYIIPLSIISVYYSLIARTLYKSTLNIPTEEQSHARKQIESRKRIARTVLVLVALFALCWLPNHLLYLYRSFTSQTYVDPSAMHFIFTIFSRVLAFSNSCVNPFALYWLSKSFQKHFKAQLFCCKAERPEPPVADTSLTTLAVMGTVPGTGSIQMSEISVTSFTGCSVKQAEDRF

[3] = system: (e1-BB3) BB2 gain-of-affinity chimera; experiment: 125I-peptide #1 competition binding, CHOP cells; design: species or system human, mouse; settings: EC1 of BB2 replaced by EC1 of BB3, vs wild type BB2
[H107K] BB3* receptor = [H107K] BB3* receptor (Homo sapiens, UniProt P32247, H107K/H294R); experiment: 125I-peptide #1 competition binding, CHOP cells
Sequence of [H107K] BB3* receptor (P32247 whole entry H107K/H294R): as the sequence (P32247 whole entry T106S/H107K/E111D/G112R/H294R) above, with S106T, D111E, R112G counted along it

[4] = target: [H107K] wild type BB3 receptor (Homo sapiens, UniProt P32247, H107K); experiment: 125I-peptide #1 competition binding, CHOP cells
Sequence of [H107K] wild type BB3 receptor (P32247 whole entry H107K): as the sequence (P32247 whole entry T106S/H107K/E111D/G112R/H294R) above, with S106T, D111E, R112G, R294H counted along it

[H107D] BB3* receptor = [H107D] BB3* receptor (Homo sapiens, UniProt P32247, H107D/H294R); experiment: 125I-peptide #1 competition binding, CHOP cells
Sequence of [H107D] BB3* receptor (P32247 whole entry H107D/H294R): as the sequence (P32247 whole entry T106S/H107K/E111D/G112R/H294R) above, with S106T, K107D, D111E, R112G counted along it

[5] = target: [H107F] wild type BB3 receptor (Homo sapiens, UniProt P32247, H107F); experiment: 125I-peptide #1 competition binding, CHOP cells
Sequence of [H107F] wild type BB3 receptor (P32247 whole entry H107F): as the sequence (P32247 whole entry T106S/H107K/E111D/G112R/H294R) above, with S106T, K107F, D111E, R112G, R294H counted along it

[6] = target: [H107Y] wild type BB3 receptor (Homo sapiens, UniProt P32247, H107Y); experiment: 125I-peptide #1 competition binding, CHOP cells
Sequence of [H107Y] wild type BB3 receptor (P32247 whole entry H107Y): as the sequence (P32247 whole entry T106S/H107K/E111D/G112R/H294R) above, with S106T, K107Y, D111E, R112G, R294H counted along it

[7] = target: [H107K, G112R] BB3* receptor (Homo sapiens, UniProt P32247, G112R/H107K/H294R); experiment: 125I-peptide #1 competition binding, CHOP cells
Sequence of [H107K, G112R] BB3* receptor (P32247 whole entry H107K/G112R/H294R): as the sequence (P32247 whole entry T106S/H107K/E111D/G112R/H294R) above, with S106T, D111E counted along it

[8] = target: [H107K, G112R] wild type BB3 receptor (Homo sapiens, UniProt P32247, G112R/H107K); experiment: 125I-peptide #1 competition binding, CHOP cells
Sequence of [H107K, G112R] wild type BB3 receptor (P32247 whole entry H107K/G112R): as the sequence (P32247 whole entry T106S/H107K/E111D/G112R/H294R) above, with S106T, D111E, R294H counted along it

[L123I] BB3* receptor = [L123I] BB3* receptor (Homo sapiens, UniProt P32247, H294R/L123I); experiment: 125I-peptide #1 competition binding, CHOP cells
Sequence of [L123I] BB3* receptor (P32247 whole entry L123I/H294R): as the sequence (P32247 whole entry T106S/H107K/E111D/G112R/H294R) above, with S106T, K107H, D111E, R112G, L123I counted along it

[9] = target: [V101A] wild type BB3 receptor (Homo sapiens, UniProt P32247, V101A); experiment: 125I-peptide #1 competition binding, CHOP cells
Sequence of [V101A] wild type BB3 receptor (P32247 whole entry V101A): as the sequence (P32247 whole entry T106S/H107K/E111D/G112R/H294R) above, with V101A, S106T, K107H, D111E, R112G, R294H counted along it

[S124P] BB3* receptor = [S124P] BB3* receptor (Homo sapiens, UniProt P32247, H294R/S124P); experiment: 125I-peptide #1 competition binding, CHOP cells
Sequence of [S124P] BB3* receptor (P32247 whole entry S124P/H294R): as the sequence (P32247 whole entry T106S/H107K/E111D/G112R/H294R) above, with S106T, K107H, D111E, R112G, S124P counted along it

[R127K] BB3* receptor = [R127K] BB3* receptor (Homo sapiens, UniProt P32247, H294R/R127K); experiment: 125I-peptide #1 competition binding, CHOP cells
Sequence of [R127K] BB3* receptor (P32247 whole entry R127K/H294R): as the sequence (P32247 whole entry T106S/H107K/E111D/G112R/H294R) above, with S106T, K107H, D111E, R112G, R127K counted along it

[10] = target: [R127K] wild type BB3 receptor (Homo sapiens, UniProt P32247, R127K); experiment: 125I-peptide #1 competition binding, CHOP cells
Sequence of [R127K] wild type BB3 receptor (P32247 whole entry R127K): as the sequence (P32247 whole entry T106S/H107K/E111D/G112R/H294R) above, with S106T, K107H, D111E, R112G, R127K, R294H counted along it

[R127N] BB3* receptor = [R127N] BB3* receptor (Homo sapiens, UniProt P32247, H294R/R127N); experiment: 125I-peptide #1 competition binding, CHOP cells
Sequence of [R127N] BB3* receptor (P32247 whole entry R127N/H294R): as the sequence (P32247 whole entry T106S/H107K/E111D/G112R/H294R) above, with S106T, K107H, D111E, R112G, R127N counted along it

[11] = target: [R127N] wild type BB3 receptor (Homo sapiens, UniProt P32247, R127N); experiment: 125I-peptide #1 competition binding, CHOP cells
Sequence of [R127N] wild type BB3 receptor (P32247 whole entry R127N): as the sequence (P32247 whole entry T106S/H107K/E111D/G112R/H294R) above, with S106T, K107H, D111E, R112G, R127N, R294H counted along it

[R127H] BB3* receptor = [R127H] BB3* receptor (Homo sapiens, UniProt P32247, H294R/R127H); experiment: 125I-peptide #1 competition binding, CHOP cells
Sequence of [R127H] BB3* receptor (P32247 whole entry R127H/H294R): as the sequence (P32247 whole entry T106S/H107K/E111D/G112R/H294R) above, with S106T, K107H, D111E, R112G, R127H counted along it

[12] = target: [R127H] wild type BB3 receptor (Homo sapiens, UniProt P32247, R127H); experiment: 125I-peptide #1 competition binding, CHOP cells
Sequence of [R127H] wild type BB3 receptor (P32247 whole entry R127H): as the sequence (P32247 whole entry T106S/H107K/E111D/G112R/H294R) above, with S106T, K107H, D111E, R112G, R127H, R294H counted along it

[13] = target: BB3 and BB3* receptors and their mutants (Homo sapiens, UniProt P32247, H294R/R127H); settings: [R127H], background not stated (discussion)
Sequence of BB3 and BB3* receptors and their mutants (Homo sapiens, UniProt P32247, H294R/R127H) (P32247 whole entry R127H/H294R): as the sequence (P32247 whole entry T106S/H107K/E111D/G112R/H294R) above, with S106T, K107H, D111E, R112G, R127H counted along it

[14] = target: BB3 and BB3* receptors and their mutants (Homo sapiens, UniProt P32247, H294R/R127K); settings: [R127K], background not stated (discussion)
Sequence of BB3 and BB3* receptors and their mutants (Homo sapiens, UniProt P32247, H294R/R127K) (P32247 whole entry R127K/H294R): as the sequence (P32247 whole entry T106S/H107K/E111D/G112R/H294R) above, with S106T, K107H, D111E, R112G, R127K counted along it

[15] = system: BB3 and BB3* receptors and their mutants

For `CC(C)C[C@H](NC(=O)C[C@H](O)[C@H](CC1CCCCC1)NC(=O)[C@H](Cc1c[nH]cn1)NC(=O)[C@H](Cc1ccccc1)NC(=O)OC(C)(C)C)C(=O)NCc1cccc([N+](C)(C)C)c1` [Bantag-1, Boc-Phe-His-4-amino-5-cyclohexyl-2,4,5-trideoxypentonyl-Leu- (3-dimethylamino) benzylamide N-methylammonium trifluoroacetate], the decrease in affinity [1] was 377 fold and > 377 fold and > 400 fold, the decrease in affinity [2] was 23 fold and the increase in affinity [3] was 5 fold. For the same molecule, the decrease in affinity ([H107K] BB3* receptor) was 54 fold, the decrease in affinity [4] was 35 fold and the decrease in affinity ([H107D] BB3* receptor) was over 192 fold. It also gave a decrease in affinity [5] of 4 fold, a decrease in affinity [6] of 13 fold and a decrease in affinity [7] of 250 fold. It also gave a decrease in affinity [8] of 68 fold, a decrease in affinity ([L123I] BB3* receptor) of 4 fold and a decrease in affinity [9] of 179 fold. It also gave a decrease in affinity ([S124P] BB3* receptor) of 54 fold, a decrease in affinity ([R127K] BB3* receptor) of 45 fold and a decrease in affinity [10] of over 526 fold. It also gave a decrease in affinity ([R127N] BB3* receptor) of 78 fold, a decrease in affinity [11] of 12 fold and a decrease in affinity ([R127H] BB3* receptor) of 192 fold. The decrease in affinity [12] was 175 fold, the decrease in affinity [13] was over 192 fold and the decrease in affinity [14] was 45 fold. For the same molecule, the decrease in affinity ([15]; E111D or G112R BB3 receptor mutants) was 1 to 2.5 fold, the loss in affinity ([15]; [G112R] in wild type and BB3* receptor) was 2 fold and 2–3 fold and the decrease in affinity ([15]; [H107F] and [H107Y] in BB3*) was 7–16 fold. For the same molecule, the decrease in affinity ([15]; [H107K, E111D, G112R] in wild type and BB3*) was 500 fold and > 500 fold, the decrease in affinity ([15]; [H107K], BB3 and BB3* not separated) was 60 fold and 35–54 fold and 50 fold and the decrease in affinity ([15]; [H107N] in either BB3 or BB3*) was over 58 fold. For the same molecule, the decrease in affinity ([15]; [H107W], background not separated) was over 190 times, the decrease in affinity ([15]; [H107Y] and [H107F] in either BB3 or BB3*) was 4–16 fold and 5–17 fold and the decrease in affinity ([15]; [L123I, R127Q] in wild type and BB3*) was > 2,000 fold. The decrease in affinity ([15]; [R127E] in wild type and BB3*) was 188 fold and > 200 fold, the decrease in affinity ([15]; [R127Q], [L123I] and [S124P] in wild type BB3) was 233–536 fold and the decrease in affinity ([15]; [R127Q], background not separated) was 400 fold and > 390 fold and > 400 fold. The Ki ([15]; read-out: Ki (range given), [G112R] in wild type and BB3* receptor) was 11.6 to 16 nM and the decrease in affinity ([15]; single EC1 amino acid substitutions alone) was 1.4–54 fold.
